# Assay results taken from patent publication US8318898B2, “Synthetic peptides for use as inhibitors of neurotransmitter secretion and as inducers of cellular relaxation” (Universite de Lausanne, priority 2005, dated 2012).
# Where two headings read alike, the source gives them in different places. Ends that are not written are not given here.
# How the values were obtained:
# PC12 cells = test: Inhibition of [3H]norepinephrine neurosecretion by PC12 cells; type: cell-based, rat; settings: for inhibition of neurotransmitter-evoked secretion: concentration not given, peptide alone; for level of inhibition maintained over the 48 hour period: cultured with PC12 cells for 48 hours in the presence or absence of serum, up to 90%; for inhibition of secretion, stability test: 100 μM
# Procedure: Using the neurosecretion assay described above, peptides fused to the TAT-PTD (L-TAT) were tested for inhibition of neurotransmitters and compared to use of L-TAT alone (SEQ ID NO: 3). In vitro screening for synthetic peptides capable of efficiently and selectively blocking neurotransmitter release in the PC12 cell line grown under defined conditions was performed.
# PC12 cells were washed with DMEM-WM (Dulbecco's Modified Eagle Medium (GIBCO cat. no. 31968) completed with 25 units of penicillin and streptomycin each) and loaded for 1-2 h with [^3H] norepinephrine (NE; 0.5 μCi/ml) in DMEM-CM (DMEM-WM complemented with 6% horse serum and 6% fetal calf serum). Cells were washed for 1 h with DMEM-WM, and then washed 2 times at 5-minute intervals. Basal release was determined by a 15-minutes incubation with CaSB-glucose 5 mM K^+ (CaSB-glucose: 140 mM NaCl, 5 mM KCl, 2 mM CaCl2, 11 mM glucose, [pH 7.4]). The peptides were added to the cells at defined concentrations after loading with NE but before induction of secretion. Cells were depolarized with 85 mM K^+ (CaSB-glucose with Na^+ reduced accordingly) for 15 minutes to determine stimulated release. Superfusate (1 ml) was removed to tubes. Adherent cells were solubilized in CaSB-glucose-0.1% Triton (1 ml/well). The quantities of released and non-released radiolabeled neurotransmitter were determined by liquid scintillation counting of cleared superfusates and cell lysates, respectively. Total uptake was calculated by addition of released and retained radioactivity, and the percentage release was as calculated (released counts/total uptake counts)×100. Results were also expressed as percent inhibition of neurosecretion.
# PC12-ES cells = test: [3H]NE evoked secretion by PC12-ES cells with secretagogues; type: cell-based, rat; settings: potassium 80 mM, nicotine 0.1 mM or carbachol 1 mM, 15 minutes
# Description: Neurotransmitter Secretion by PC12-ES. PC12 cells offer a number of advantages for studies of regulated secretion. Exocytosis of large dense-core vesicles (LDCVs) in these cells can be easily assayed for the release of radioactive norepinephrine ([^3H]NE) from pre-labeled cells [Greene et al., Brain Res, 129:247-63, 1977; Greene et al., J Neurochem, 30:579-86, 1978; Greene et al., J. Neurochem. 30:549-55, 1978; Greene et al., Brain Res. 138:521-8; 1977; Greene et al., Nature 268:349-51, 1977]. The neurosecretion assay was carried out by measuring [^3H]NE evoked secretion with PC12-ES cells.
# PC12-ES cells were either untreated, treated with STSP (100 nM), or treated with NGF (50 ng/ml) for 48 h before the loading with [^3H]NE and prepared for release measurements. […] Media were collected, and released [^3H]NE as well as the total cell content were determined by liquid scintillation counting. Basal secretion was measured in calcium secretion buffer (CaSB) without secretagogue or CaSB supplemented with 11 mM glucose (CaSB-Glucose). The data are expressed in Table 1 as the percent secretion: [amount released/(amount released+amount in cell lysate)]×100. Net secretion is secretagogue-stimulated release minus basal release.
# Recombinant furin = Recombinant furin (Homo sapiens, UniProt P09958); test: biochemical; type: biochemical
# Sequence of Recombinant furin (P09958 108-794): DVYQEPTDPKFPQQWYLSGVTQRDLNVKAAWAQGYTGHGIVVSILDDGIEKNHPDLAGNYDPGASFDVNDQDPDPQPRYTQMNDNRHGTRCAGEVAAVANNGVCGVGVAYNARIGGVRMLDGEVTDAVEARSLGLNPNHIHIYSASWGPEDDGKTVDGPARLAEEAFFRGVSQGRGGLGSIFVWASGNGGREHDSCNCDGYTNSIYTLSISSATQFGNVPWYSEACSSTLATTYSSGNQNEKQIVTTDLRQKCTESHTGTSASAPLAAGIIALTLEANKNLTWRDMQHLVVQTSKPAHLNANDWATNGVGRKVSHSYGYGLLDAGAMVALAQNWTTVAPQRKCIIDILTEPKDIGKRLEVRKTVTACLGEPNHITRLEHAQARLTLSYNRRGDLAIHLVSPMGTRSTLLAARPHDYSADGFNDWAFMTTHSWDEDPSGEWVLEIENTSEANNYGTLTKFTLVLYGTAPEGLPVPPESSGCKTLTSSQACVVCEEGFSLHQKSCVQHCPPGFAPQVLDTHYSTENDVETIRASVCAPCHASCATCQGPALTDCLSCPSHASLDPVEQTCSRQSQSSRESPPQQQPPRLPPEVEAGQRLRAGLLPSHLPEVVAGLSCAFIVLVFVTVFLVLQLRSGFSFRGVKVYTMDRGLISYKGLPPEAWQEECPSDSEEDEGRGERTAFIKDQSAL
# Procedure: To determine if the peptides described herein have an effect on the activity of PC enzymes which are involved in a condition or disorder such as fibrosis, the effect of the peptides on furin activity in vitro was measured as percent inhibition of cleavage of the furin substrate fluorogenic t-butyloxycarbonyl (Boc)-RVRR-7-amino-4-methylcoumarin (MCA).
# All in vitro enzyme studies were performed at room temperature in a final volume of 50-100 μl in 96-well flat-bottom black plates. The buffer consisted of 100 mM HEPES, 1 mM CaCl2, 0.5% TritonX-100, and 1 mM 2-β-mercaptoethanol pH 7.5. Assays were performed using Boc-RVRR-MCA as fluorogenic substrate at 100 μM. Recombinant furin (0.8 U of activity) was incubated with Boc-RVRR-MCA in the presence or absence of varying concentrations of synthetic peptides D-9Rac/am (SEQ ID NO. 15), L-Bel1 (SEQ ID NO. 3), or L-9K (SEQ ID NO. 6). One unit of activity is defined as the amount of furin that can release 1 μmol of MCA from the fluorogenic Boc-RVRR-MCA per min at 30° C. The release of highly fluorescent 7-amino 4-methyl coumarin (MCA) from the Boc-RVRR-MCA was monitored by a spectrofluorometer instrument at excitation and emission wavelengths of 370 nm/460 nm. […]
# furin = molecular target: T1, furin (Rattus norvegicus, UniProt P23377); type: biochemical
# T1 construct: Furin activity was constitutively detected in PC12-ES cells; endogenous in cells; host or cells: PC12-ES cells (lysate)
# T1 sequence (P23377 108-793): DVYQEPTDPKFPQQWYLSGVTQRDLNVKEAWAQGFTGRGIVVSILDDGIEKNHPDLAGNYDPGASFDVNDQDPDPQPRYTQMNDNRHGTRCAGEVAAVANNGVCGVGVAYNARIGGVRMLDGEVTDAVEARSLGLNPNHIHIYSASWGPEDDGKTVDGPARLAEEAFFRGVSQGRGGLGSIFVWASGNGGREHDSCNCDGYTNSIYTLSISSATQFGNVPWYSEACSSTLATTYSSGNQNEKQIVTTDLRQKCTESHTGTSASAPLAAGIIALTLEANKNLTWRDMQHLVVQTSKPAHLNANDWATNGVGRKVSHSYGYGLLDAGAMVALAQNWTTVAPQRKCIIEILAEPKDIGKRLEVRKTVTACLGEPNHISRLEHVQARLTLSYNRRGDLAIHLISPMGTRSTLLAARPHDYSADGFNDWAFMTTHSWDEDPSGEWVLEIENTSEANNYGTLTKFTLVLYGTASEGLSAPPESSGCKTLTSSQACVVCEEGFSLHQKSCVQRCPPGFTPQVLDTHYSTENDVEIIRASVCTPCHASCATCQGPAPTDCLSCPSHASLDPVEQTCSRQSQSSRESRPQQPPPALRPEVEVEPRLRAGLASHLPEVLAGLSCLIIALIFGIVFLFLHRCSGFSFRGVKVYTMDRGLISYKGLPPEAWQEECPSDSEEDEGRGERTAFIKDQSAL
# Procedure: To monitor the intracellular furin activity, 80% confluent PC12-ES cells were washed twice with ice-cold phosphate-buffered saline (PBS1×) by centrifugation at 800×g for 5 minutes at 4° C., resuspended in 100 mM HEPES, 1 mM CaCl2, 0.5% TritonX-100, and 1 mM 2-β-mercaptoethanol, pH 7.5, sonicated 6 times at 4° C. for 10 seconds, and then centrifuged at 8000×g for 20 minutes at 4° C. The protein concentration in the samples was determined using a bicinchonic acid protein assay kit (Pierce Chemical Co.).
# Intracellular furin activity was measured with a furin-specific fluorogenic substrate, t-butyloxycarbonyl (Boc)-[…]-7-amino-4-methylcoumarin (MCA). Briefly, the cell lysate (20 μg-60 μg of protein) prepared as described above was incubated with 100 μM Boc-RVRR-MCA in a 96-well flat-bottom black plate for at least 6 hours at room temperature and fluorescence measured by excitation at 365 nm and emission at 450 nm.
# [1] = cited from earlier work
compound,measurement,setting,value
3D-MRP: SEQ ID NO: 8 (KKKKKFDFKKPFKLDGLDFKRNRK; Synthetic peptide 3DMRPED) [Peptide 3D-MRP],dose dependence of inhibition of neurosecretion,PC12 cells,dose dependent inhibition
9R-L-Ac-am: SEQ ID NO: 11 (Ac-GYGRRRRRRRRRG-NH2) [Peptide 9R-L-Ac-am],inhibition of neurotransmitter-evoked secretion,PC12 cells,approximately 67%
same,level of inhibition maintained over the 48 hour period,PC12 cells,approximately 80%
9R-L: SEQ ID NO: 5 (GYGRRRRRRRRRG; Synthetic peptide 9R-L),inhibition of neurotransmitter-evoked secretion,PC12 cells,approximately 70%
same,level of inhibition maintained over the 48 hour period,PC12 cells,approximately 80%
9R-MRP: SEQ ID NO: 22; fusion peptide (GYGRRRRRRRRRGKKKKKKFSFKKPFKLSGLSFKRNRK; Synthetic peptide 9R-MRP),inhibition of secretion,PC12 cells; 50 μM (mixture: 50 μM each),approximately 70%
C[N+](C)(C)CCOC(N)=O [Carbachol],percent secretion of [3H]NE,"PC12-ES cells; CaSB-Glucose, NGF differentiated cells",32.4%
same,percent secretion of [3H]NE,"PC12-ES cells; CaSB-Glucose, STSP differentiated cells",57%
same,percent secretion of [3H]NE,"PC12-ES cells; CaSB-Glucose, non-differentiated cells",37.24%
same,percent secretion of [3H]NE,"PC12-ES cells; CaSB, NGF differentiated cells",27%
same,percent secretion of [3H]NE,"PC12-ES cells; CaSB, STSP differentiated cells",46.5%
same,percent secretion of [3H]NE,"PC12-ES cells; CaSB, non-differentiated cells",44.7%
"O=C(O)CN(CCN(CC(=O)O)CC(=O)O)CC(=O)O [EDTA, reference compound]",inhibition of in vitro furin activity (in words),Recombinant furin,effectively suppressed
same,inhibition of intracellular furin activity (in words),furin,inhibited
"O=C(O)CN(CCOCCOCCN(CC(=O)O)CC(=O)O)CC(=O)O [EGTA, reference compound]",inhibition of in vitro furin activity (in words),Recombinant furin; Boc-RVRR-MCA 100 μM as substrate,effectively suppressed
same,inhibition of intracellular furin activity (in words),"furin; EDTA 50 mM, EGTA 50 mM, Dec-RVKR-CMK 50 μM",inhibited
GRRRRRRRRRGYG [Peptide 9Rrev-D],inhibition of neurotransmitter-evoked secretion,PC12 cells,approximately 57%
same,level of inhibition maintained over the 48 hour period,PC12 cells,approximately 80%
GYGRRRRRRRRRG [Peptide 9R-D],inhibition of neurotransmitter-evoked secretion,PC12 cells,approximately 65%
same,level of inhibition maintained over the 48 hour period,PC12 cells,approximately 80%
L-Tat 49-86: SEQ ID NO: 4 (GRKKRRQRRRAHQNSQTHQASLSKQPTSQPRGDPTGKEG; Synthetic peptide L-Tat 49-86),"inhibition of secretion, stability test",PC12 cells; 0 hours,<20%
same,"inhibition of secretion, stability test",PC12 cells; 1 hour,>10%
same,"inhibition of secretion, stability test",PC12 cells; 24 hours,26%
same,"inhibition of secretion, stability test",PC12 cells; 48 hours,25%
same,"inhibition of secretion, stability test",PC12 cells; No Serum,50%
L-Tat-3D-MRP: SEQ ID NO: 10 (GYGRKKRRQRRRGKKKKKFDFKKPFKLDGLDFKRNRK; Synthetic peptide L-Tat-3DMRPED),dose dependence of inhibition of neurosecretion,PC12 cells,dose dependent inhibition
L-Tat-ESUP-A: SEQ ID NO: 1; ESUP-A fused to the TAT-PTD (GYGRKKRRQRRRGSNKTRIDEANQRATKMLGSG; Synthetic peptide L-Tat-ESUP-A),dose dependence of inhibition of neurosecretion,PC12 cells,dose dependent inhibition
same,inhibition of PC12 neurotransmitter secretion,PC12 cells; peptide 10 μM,30%
same,inhibition of PC12 neurotransmitter secretion,PC12 cells; peptide 50 μM,40%
same,inhibition of PC12 neurotransmitter secretion,PC12 cells; peptide 100 μM,50%
same,inhibition of PC12 neurotransmitter secretion,PC12 cells; peptide 250 μM,70%
L-Tat-MRP: SEQ ID NO: 9 (GYGRKKRRQRRRGKKKKKFSFKKPFKLSGLSFKRNRK; Synthetic peptide L-Tat-MRPED),dose dependence of inhibition of neurosecretion,PC12 cells,dose dependent inhibition
MRPEDpep: SEQ ID NO: 7 (KKKKKFSFKKPFKLSGLSFKRNRK; Synthetic peptide MRPED),dose dependence of inhibition of neurosecretion,PC12 cells,dose dependent inhibition
same,"inhibition of secretion, stability test",PC12 cells; 0 hours,>20%
same,"inhibition of secretion, stability test",PC12 cells; 1 hour,23%
same,"inhibition of secretion, stability test",PC12 cells; 24 hours,15%
same,"inhibition of secretion, stability test",PC12 cells; No Serum,17%
"NH2-SNKTRIDEANQRATKMLGSG-COOH (H-SNKTRIDEANQRATKMLGSG-OH) [ESUP-A, reference compound]",inhibition of neurotransmitter secretion (in words),PC12 cells,only minimal inhibition
same,inhibition of PC12 neurotransmitter secretion,PC12 cells; peptide 100 μM,20%
Pal-Lys-Thr-Thr-Lys-Ser (Pal-KTTKS) [palmitoyl pentapeptide],improving the effects of photo-aging,[1]; 3 ppm versus retinol 700 ppm,as effective as retinol
same,side effects,[1]; in vivo,not associated with any side effects
